#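 Each compound was tested at five concentrations against cells in 96-well plates for 48 hours. The concentration for full growth arrest is given as TGI.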
# Assays:
# Test in all cases: NCI tumour cell line growth inhibition, 48 h
# 786-0 renal = test system: 786-0 renal
# A498 renal = test system: A498 renal
# A549 NSCLC = test system: A549 NSCLC
# ACHN renal = test system: ACHN renal
# BT-549 breast = test system: BT-549 breast
# CAKI-1 renal = test system: CAKI-1 renal
# CCRF-CEM leukemia = test system: CCRF-CEM leukemia
# COLO 205 colon = test system: COLO 205 colon
# DLD-1 colon = test system: DLD-1 colon
# DMS 114 small cell lung = test system: DMS 114 small cell lung
# DMS 273 small cell lung = test system: DMS 273 small cell lung
# DU-145 prostate = test system: DU-145 prostate
# EKVX NSCLC = test system: EKVX NSCLC
# HCC-2998 colon = test system: HCC-2998 colon
# HCT-116 colon = test system: HCT-116 colon
# HCT-15 colon = test system: HCT-15 colon
# HL-60(TB) leukemia = test system: HL-60(TB) leukemia
# HOP-18 NSCLC = test system: HOP-18 NSCLC
# HOP-62 NSCLC = test system: HOP-62 NSCLC
# HOP-92 NSCLC = test system: HOP-92 NSCLC
# HS 578T breast = test system: HS 578T breast
# HT29 colon = test system: HT29 colon
# IGROV1 ovarian = test system: IGROV1 ovarian
# K-562 leukemia = test system: K-562 leukemia
# KM12 colon = test system: KM12 colon
# KM20L2 colon = test system: KM20L2 colon
# LOX IMVI melanoma = test system: LOX IMVI melanoma
# LXFL 529 NSCLC = test system: LXFL 529 NSCLC
# M14 melanoma = test system: M14 melanoma
# M19-MEL melanoma = test system: M19-MEL melanoma
# MALME-3M melanoma = test system: MALME-3M melanoma
# MCF7 breast = test system: MCF7 breast
# MDA-MB-231 breast = test system: MDA-MB-231 breast
# MDA-MB-435 = test system: MDA-MB-435
# MDA-N = test system: MDA-N
# MOLT-4 leukemia = test system: MOLT-4 leukemia
# NCI-H226 lung = test system: NCI-H226 lung
# NCI-H23 lung = test system: NCI-H23 lung
# NCI-H460 lung = test system: NCI-H460 lung
# NCI-H522 lung = test system: NCI-H522 lung
# NCI/ADR-RES ovarian = test system: NCI/ADR-RES ovarian
# OVCAR-3 ovarian = test system: OVCAR-3 ovarian
# OVCAR-4 ovarian = test system: OVCAR-4 ovarian
# OVCAR-5 ovarian = test system: OVCAR-5 ovarian
# OVCAR-8 ovarian = test system: OVCAR-8 ovarian
# P388 leukemia = test system: P388 leukemia
# P388/ADR leukemia = test system: P388/ADR leukemia
# PC-3 prostate = test system: PC-3 prostate
# RPMI-8226 leukemia = test system: RPMI-8226 leukemia
# RXF 393 renal = test system: RXF 393 renal
# SF-268 CNS = test system: SF-268 CNS
# SF-295 CNS = test system: SF-295 CNS
# SF-539 CNS = test system: SF-539 CNS
# SK-MEL-2 melanoma = test system: SK-MEL-2 melanoma
# SK-MEL-28 melanoma = test system: SK-MEL-28 melanoma
# SK-MEL-5 melanoma = test system: SK-MEL-5 melanoma
# SK-OV-3 ovarian = test system: SK-OV-3 ovarian
# SN12C renal = test system: SN12C renal
# SN12K1 renal = test system: SN12K1 renal
# SNB-19 CNS = test system: SNB-19 CNS
# SNB-75 CNS = test system: SNB-75 CNS
# SNB-78 CNS = test system: SNB-78 CNS
# SR leukemia = test system: SR leukemia
# SW-620 colon = test system: SW-620 colon
# T-47D breast = test system: T-47D breast
# TK-10 renal = test system: TK-10 renal
# U251 CNS = test system: U251 CNS
# UACC-257 melanoma = test system: UACC-257 melanoma
# UACC-62 melanoma = test system: UACC-62 melanoma
# UO-31 renal = test system: UO-31 renal
# XF 498 CNS = test system: XF 498 CNS
smiles,measurement,setting,value
O=P1(NCCCl)OCCCN1CCCl (stereo unspecified),TGI,786-0 renal,> 466 µM
same,TGI,A498 renal,462 µM
same,TGI,A549 NSCLC,434 µM
same,TGI,ACHN renal,> 500 µM
same,TGI,BT-549 breast,> 500 µM
same,TGI,CAKI-1 renal,341 µM
same,TGI,CCRF-CEM leukemia,400 µM
same,TGI,COLO 205 colon,428 µM
same,TGI,DLD-1 colon,431 µM
same,TGI,DMS 114 small cell lung,438 µM
same,TGI,DMS 273 small cell lung,410 µM
same,TGI,DU-145 prostate,> 500 µM
same,TGI,EKVX NSCLC,447 µM
same,TGI,HCC-2998 colon,427 µM
same,TGI,HCT-116 colon,440 µM
same,TGI,HCT-15 colon,429 µM
same,TGI,HL-60(TB) leukemia,381 µM
same,TGI,HOP-18 NSCLC,124 µM
same,TGI,HOP-62 NSCLC,444 µM
same,TGI,HOP-92 NSCLC,367 µM
same,TGI,HS 578T breast,> 500 µM
same,TGI,HT29 colon,448 µM
same,TGI,IGROV1 ovarian,457 µM
same,TGI,K-562 leukemia,466 µM
same,TGI,KM12 colon,448 µM
same,TGI,KM20L2 colon,434 µM
same,TGI,LOX IMVI melanoma,402 µM
same,TGI,LXFL 529 NSCLC,> 500 µM
same,TGI,M14 melanoma,> 500 µM
same,TGI,M19-MEL melanoma,440 µM
same,TGI,MALME-3M melanoma,399 µM
same,TGI,MCF7 breast,388 µM
same,TGI,MDA-MB-231 breast,> 500 µM
same,TGI,MDA-MB-435,> 500 µM
same,TGI,MDA-N,> 500 µM
same,TGI,MOLT-4 leukemia,391 µM
same,TGI,NCI-H226 lung,425 µM
same,TGI,NCI-H23 lung,454 µM
same,TGI,NCI-H460 lung,448 µM
same,TGI,NCI-H522 lung,360 µM
same,TGI,NCI/ADR-RES ovarian,450 µM
same,TGI,OVCAR-3 ovarian,422 µM
same,TGI,OVCAR-4 ovarian,447 µM
same,TGI,OVCAR-5 ovarian,453 µM
same,TGI,OVCAR-8 ovarian,439 µM
same,TGI,P388 leukemia,293 µM
same,TGI,P388/ADR leukemia,315 µM
same,TGI,PC-3 prostate,> 500 µM
same,TGI,RPMI-8226 leukemia,428 µM
same,TGI,RXF 393 renal,445 µM
same,TGI,SF-268 CNS,426 µM
same,TGI,SF-295 CNS,429 µM
same,TGI,SF-539 CNS,413 µM
same,TGI,SK-MEL-2 melanoma,419 µM
same,TGI,SK-MEL-28 melanoma,439 µM
same,TGI,SK-MEL-5 melanoma,429 µM
same,TGI,SK-OV-3 ovarian,424 µM
same,TGI,SN12C renal,437 µM
same,TGI,SN12K1 renal,430 µM
same,TGI,SNB-19 CNS,418 µM
same,TGI,SNB-75 CNS,435 µM
same,TGI,SNB-78 CNS,451 µM
same,TGI,SR leukemia,> 500 µM
same,TGI,SW-620 colon,401 µM
same,TGI,T-47D breast,> 500 µM
same,TGI,TK-10 renal,> 500 µM
same,TGI,U251 CNS,431 µM
same,TGI,UACC-257 melanoma,421 µM
same,TGI,UACC-62 melanoma,419 µM
same,TGI,UO-31 renal,441 µM
same,TGI,XF 498 CNS,436 µM

# — PubChem BioAssay (NCI)
